# Source: patent publication US20060159727A1, “Prevention of Systemic Microbial Infection” (priority 2005, published 2006)
# Columns and labels:
# [1] = system: Salmonella enteriditis phage type VIII (SePT8); experiment: Susceptibility test: paper disk zone of inhibition on inoculated agar plate; type: cell-based; details: paper disk impregnated with fixed concentration of test material, 2 days
# Procedure: An agar plate was uniformly inoculated with salmonella and a paper disk impregnated with a fixed concentration of test material was placed on top of the agar surface. […] The bacteria used was Salmonella enteriditis phage type VIII (SePT8). The study was conducted for 2 days. A disk soaked in sterile water was used as control.
# salmonella = experiment: Concentration of salmonella in organs of challenged chicks fed test material; type: in vivo; details: chicks fed supplemented diet from hatch, sacrificed at 14 days
# Procedure: Newly hatched chicks were fed a diet supplemented with the test materials, at 7 days of age, chicks were challenged 0.2 ml of a 2×10^9 salmonella culture. Chicks were sacrificed at 14 days of age (1 week after bacterial challenge), their organs dissected and cultured to determine bacterial counts.
# E. coli = details: cited from earlier work
Compound,Zone of Inhibition [1] [mm],"concentration of salmonella in Liver (salmonella; challenged at 7 days with 0.2 ml of 2×10^9 culture, liver) [cfu]","concentration of salmonella in Ceca (salmonella; challenged at 7 days, ceca) [cfu]","concentration of salmonella in Colon (salmonella; challenged at 7 days, colon) [cfu]","concentration of salmonella in Duodenum (salmonella; challenged at 7 days, duodenum) [cfu]","concentration of salmonella in Spleen (salmonella; challenged at 7 days, spleen) [cfu]",citral concentration in growth media that reduced the concentration of E. coli (E. coli),"citral concentration with bactericidal effect (E. coli; growth media, E. coli) [%]"
O=S(=O)([O-])[O-].[Cu+2] [Copper Sulfate],1.444,11,54,74,19,10,,
Gentamycin,1.300,,,,,,,
CC(C)=CCCC(C)=CC=O [citral],,,,,,,more than 0.01%,0.08
